Each structure is given as a SMILES string.

The results in this text go back to patent publication US10596127B2, “Composition for reducing the frequency of urination, method of making and use thereof” (WELLESLEY PHARMACEUTICALS, LLC, priority 2013, dated 2020).

For assay [1], the system named is PGE2 secretion by normal human bladder smooth muscle cells. In words: PGE2 ELISA of normal human bladder smooth muscle cell supernatants. It counts as cell-based. The note with it: for effect on the LPS-induced PGE2 responses: analgesic at either 5 μM or 50 μM. On the procedure: Prostaglandin E2 responses were analyzed by a sequential competitive ELISA (R&D Systems). More specifically, culture supernatants or PGE2 standards were added to the wells of a 96-well polystyrene microplate coated with a goat anti-mouse polyclonal antibody. After one hour incubation on a microplate shaker, an HRP-conjugated PGE2 was added and plates incubated for an additional two hours at room temperature. The plates were then washed and HRP substrate solution added to each well. The color was allowed to develop for 30 min and the reaction stopped by addition sulfuric acid before reading the plate at 450 nm with wavelength correction at 570 nm. Results are expressed as mean pg/ml of PGE2.
Normal human bladder smooth muscle cells were isolated by enzymatic digestion from macroscopically normal pieces of human bladder. Cells were expended in vitro by culture at 37° C. in a 5% CO2 atmosphere in RPMI 1640 supplemented with 10% fetal bovine serum, 15 mM HEPES, 2 mM L-glutamine, 100 U/ml penicillin, and […] of streptomycin and passage once a week by treatment with trypsin to detach cells followed by reseeding in a new culture flask. The first week of culture, the culture medium was supplemented with 0.5 ng/ml epidermal growth factor, 2 ng/ml fibroblast growth factor, and 5 μg/ml insulin.
[…] When no other effectors were added to the cells, 50 μl of RPMI 1640 without fetal bovine serum were added to the wells to adjust the final volume to 200 μl.
After 24 hours of culture, 150 μl of culture supernatants were collected, spun down for 2 min at 8,000 rpm at 4° C. to remove cells and debris and stored at −70° C. for analysis of Prostaglandin E2 (PGE2) responses by ELISA. Cells were fixed, permeabilized and blocked for detection of COX2 using a fluorogenic substrate. In selected experiment cells were stimulated 12 hours in vitro for analysis of COX2, PGE2 and cytokine responses.
COX2 and PGE2 responses were analyzed as described in Example 3. Cytokine responses were analyzed as described in Example 2.
For orientation: In an ELISA, binding on a coated surface is turned into a signal by an enzyme label.

Assay [2] relates to COX2 expression by mouse bladder cells. The assay is described as follows: Cell-based ELISA of total COX2 in mouse bladder cells. The note with it: for induction of COX2 responses by analgesic alone: 5 μM or 50 μM, 24-hour cultures, no stimulus; for effect on the effect of LPS on COX2 levels: LPS (1 μg/ml), analgesic at either 5 μM or 50 μM. As to the method: Bladder cells were removed from euthanized animals C57BL/6 mice (8-12 weeks old) and cells were isolated by enzymatic digestion followed by purification on a Percoll gradient. Briefly, bladders from 10 mice were minced with scissors to fine slurry in 10 ml of digestion buffer (RPMI 1640, 2% fetal bovine serum, 0.5 mg/ml collagenase, 30 μg/ml DNase). Bladder slurries were enzymatically digested for 30 minutes at 37° C. Undigested fragments were further dispersed through a cell-trainer. The cell suspension was pelleted and added to a discontinue 20%, 40% and 75% Percoll gradient for purification on mononuclear cells. Each experiment used 50-60 bladders.
After washes in RPMI 1640, bladder cells were resuspended RPMI 1640 supplemented with 10% fetal bovine serum, 15 mM HEPES, 2 mM L-glutamine, 100 U/ml penicillin, and 100 μg/ml of streptomycin and seeded in clear-bottom black 96-well cell culture microculture plates at a cell density of 3×10^4 cells per well in 100 μl. Cells were cultured at 37° C. in a 5% CO2 atmosphere.
Bladder cells were treated with analgesic solutions (50 well) either alone or together with carbachol (10-Molar, 50 μl/well), as an example of non-inflammatory stimuli, or lipopolysaccharide (LPS) of Salmonella typhimurium (1 μg/ml, 50 μl/well), as an example of […] stimuli. When no other effectors were added to the cells, 50 μl of RPMI 1640 without fetal bovine serum were added to the wells to adjust the final volume to 200 μl.
After 24 hours of culture, 150 μl of culture supernatants were collected, spun down for 2 min at 8,000 rpm at 4° C. to remove cells and debris and stored at −70° C. for analysis of Prostaglandin E2 (PGE2) responses by ELISA. Cells were fixed, permeabilized and blocked for detection of Cyclooxygenase-2 (COX2) using a fluorogenic substrate. In selected experiment cells were stimulated 12 hours in vitro for analysis of COX2 responses
COX2 responses were analyzed by a Cell-Based ELISA using Human/mouse total COX2 immunoassay (R&D Systems), following the instructions of the manufacturer. Briefly, after cells fixation and permeabilization, a mouse anti-total COX2 and a rabbit anti-total GAPDH were added to the wells of the clear-bottom black 96-well cell culture microculture plates. After incubation and washes, an HRP-conjugated anti-mouse IgG and an AP-conjugated anti-rabbit IgG were added to the wells. Following another incubation and set of washes, the HRP- and AP-fluorogenic substrates were added. Finally, a Victor® V multilabel plate reader (PerkinElmer) was used to read the fluorescence emitted at 600 nm (COX2 fluorescence) and 450 nm (GAPDH fluorescence). Results are expressed as relative levels of total COX2 as determined by relative fluorescence unit (RFUs) and normalized to the housekeeping protein GAPDH.

[3] abbreviates: Carbachol 10^−3 M plus analgesic 50 μM, carbachol alone 104, unstimulated <20.5.
The mark [4] stands for this setting: Carbachol 10^−3 M plus analgesic 50 μM, carbachol alone 129, unstimulated <20.5, mean of duplicates.
Where [5] appears, read: LPS (10 μg/ml) plus analgesic 5 μM, LPS alone 998.
[6] abbreviates: LPS (10 μg/ml) plus analgesic 5 μM, LPS alone 1125, mean of duplicates.
Setting [7] is: LPS (10 μg/ml) plus analgesic 50 μM, LPS alone 998.
The mark [8] stands for this setting: LPS (10 μg/ml) plus analgesic 50 μM, LPS alone 1125, mean of duplicates.
Where [9] appears, read: LPS (1 μg/ml) plus analgesic 5 μM, LPS alone 420 ± 26, unstimulated 158 ± 18.
Setting [10] is: LPS (1 μg/ml) plus analgesic 50 μM, LPS alone 420 ± 26, unstimulated 158 ± 18.
Where [11] appears, read: stimulus alone, no analgesic (Carbachol 10^−3 M; LPS 10 μg/ml), unstimulated <20.5.

For the molecule `COc1ccc2cc([C@H](C)C(=O)O)ccc2c1` [Naproxen], the “PGE2 levels (pg/ml) Subject 2” value worked out at 66 pg/mL in assay [1] (setting [3]), 506 pg/mL in assay [1] (setting [5]) and 523 pg/mL in assay [1] (setting [7]). The “PGE2 levels (pg/ml) Subject 1” value came to 77 pg/mL in assay [1] (setting [4]), 859 pg/mL in assay [1] (setting [6]) and 819 pg/mL in assay [1] (setting [8]). The “effect on the LPS-induced PGE2 responses” value in assay [1] was “suppress”. The “induction of COX2 responses by analgesic alone” value (“induction of COX2 responses” for short) in assay [2] is “none of the analgesics tested induced COX2 responses”. Besides, the entries for the “Total COX2 levels (Normalized RFUs)” value in assay [2] (setting [9]) and in assay [2] (setting [10]) were 284 ± 11 Normalized RFUs and 279 ± 23 Normalized RFUs, respectively. Moreover, the “effect on the effect of LPS on COX2 levels” value (from here on “effect on the effect of LPS”) in assay [2] is reported as “suppress”.

Consider `CC(=O)Nc1ccc(O)cc1` [Acetaminophen, N-acetyl-para-aminophenol], for which the figures for the “PGE2 levels (pg/ml) Subject 2” value in assay [1] (setting [3]), in assay [1] (setting [5]) and in assay [1] (setting [7]) were 62 pg/mL, 542 pg/mL and 540 pg/mL, respectively. The entries for the “PGE2 levels (pg/ml) Subject 1” value in assay [1] (setting [4]), in assay [1] (setting [6]) and in assay [1] (setting [8]) were 76 pg/mL, 817 pg/mL and 803 pg/mL, respectively. The “effect on the LPS-induced PGE2 responses” value in assay [1] is reported as “suppress”. Further, the “induction of COX2 responses” value in assay [2] was “none of the analgesics tested induced COX2 responses”. Besides, the “Total COX2 levels (Normalized RFUs)” value in assay [2] (setting [9]) is listed as 275 ± 12 Normalized RFUs; in assay [2] (setting [10]) it was 243 ± 15 Normalized RFUs. For the same molecule, in assay [2], the “effect on the effect of LPS” value is on record as “suppress”.

For the molecule `C[N+](C)(C)CCOC(N)=O` [Carbachol, carbachol], in assay [1] (no analgesic), the “PGE2 production in response to stimulus alone” value was “induced production of PGE2”. In addition, in assay [1] (setting [11]), the “PGE2 levels (pg/ml) Subject 1” value is 129 pg/mL and the “PGE2 levels (pg/ml) Subject 2” value amounted to 104 pg/mL. Moreover, the “Total COX2 levels (Normalized RFUs)” value in assay [2] (stimulus alone, no analgesic (LPS 1 μg/ml, Carbachol (mM)), unstimulated 158 ± 18) came to 149 ± 21 Normalized RFUs. Further, the “Total COX2 levels (Normalized RFUs)” value in assay [2] (stimulus alone, no analgesic (LPS 1 μg/ml, Carbachol (mM)), unstimulated 158 ± 18, listed as carbachol) was “no significant effect”.

Consider `CC(C)Cc1ccc(C(C)C(=O)O)cc1` (stereo not drawn) [Ibuprofen, ibuprofen], for which the “PGE2 levels (pg/ml) Subject 2” value in assay [1] (setting [3]) was 73 pg/mL; in assay [1] (setting [5]), 527 pg/mL; in assay [1] (setting [7]), 501 pg/mL. In addition, the “PGE2 levels (pg/ml) Subject 1” value in assay [1] (setting [4]) worked out at 84 pg/mL; in assay [1] (setting [6]), 824 pg/mL; in assay [1] (setting [8]), 821 pg/mL. The “effect on the LPS-induced PGE2 responses” value in assay [1] is recorded as “suppress”.

Take `CC(=O)Oc1ccccc1C(=O)O` [Aspirin, Acetylsalicylic acid]: the “PGE2 levels (pg/ml) Subject 2” value in assay [1] (setting [3]) was 59 pg/mL; in assay [1] (setting [5]), 598 pg/mL; in assay [1] (setting [7]), 534 pg/mL. Besides, the “PGE2 levels (pg/ml) Subject 1” value in assay [1] (setting [4]) was found to be 89 pg/mL; in assay [1] (setting [6]) it was 838 pg/mL; in assay [1] (setting [8]), 812 pg/mL. Moreover, the “effect on the LPS-induced PGE2 responses” value in assay [1] was “suppress”. For the same molecule, the “induction of COX2 responses” value in assay [2] is “none of the analgesics tested induced COX2 responses”. Also, the “Total COX2 levels (Normalized RFUs)” value in assay [2] (setting [9]) was 240 ± 17 Normalized RFUs; in assay [2] (setting [10]) it was 258 ± 21 Normalized RFUs. The “effect on the effect of LPS” value in assay [2] is recorded as “suppress”.
